“Also recorded” adds a separate entry of the source. No end group written: not given here.
Test system: male C57BL mice
Experiment: Screening for intestinal growth effects (small intestine and colon mass relative to body weight, small intestine-colon sensitivity index)
Type: in vivo
Conditions: 30 nmol/kg s.c. twice daily, ten days, equimolar [Gly2]GLP-2
Protocol: The ability of the present compounds to stimulate intestinal growth was determined in male C57BL mice. Individual groups (n=6) of mice were given 30 nmol/kg of each compound, s.c, twice daily for ten consecutive days. For comparison purposes other groups of animals were given either an equimolar dose of [Gly2]GLP-2 (SEQ ID NO:54) or vehicle (phosphate buffered saline, pH 7.4) in the same dosing regimen. Twenty-four hours after the last dose of compound had been given the mice were sacrificed and the small intestine (from the pylorus to the cecum) and the colon (intestine distal to cecum) was emptied and weighed. To correct for slight difference in body weight (BW), the organ mass of the small intestine (SI) and colon were expressed relative to BW. The non-selective reference compound [Gly2]GLP-2 (SEQ ID NO:54) has been reported to stimulate gastrointestinal growth in both esophagus, stomach, small intestine and colon and to evaluate differences in growth pattern induced by compounds, the small intestine-colon sensitivity index of compound X was calculated as:
(SI/Colon)X/(SI/Colon)[Gly2]GLP-2%
Compounds with a small intestine-colon sensitivity greater than or equal to 1.05 were considered relatively selective for the small intestine (Table 15).
Compounds with a small intestine-colon sensitivity smaller than or equal to 0.95 were considered relatively selective for the colon (Table 15).

Row | Substance | Small intestine mass relative to [Gly2]GLP-2
1 | [Gly2, Glu3, Thr5, Leu10, Ala11,16,24,28]hGLP-2-(Lys)6-NH2 (HGEGTFSDELATILDALAARDFIAWLIATKITDKKKKKK-NH2) [Compound 1809] | significant increase in the weight of the small intestine

Same assay, conditions: 30 nmol/kg s.c. twice daily, ten days; relative to [Gly2]GLP-2

Row | Substance | Preferential growth of small intestine versus colon (small intestine-colon sensitivity)
2 | [Gly2, Glu3, Leu10, Lys11, Ala16,24,28]hGLP-2(1-33)-(Lys)6-NH2 (HGEGSFSDELKTILDALAARDFIAWLIATKITDKKKKKK-NH2) [Compound 1850] | preferentially stimulating epithelial growth in the small intestine
3 | [Gly2, Glu3, Leu10, Lys11, Ala16,24,28]hGLP-2(1-33)-NH2 (HGEGSFSDELKTILDALAARDFIAWLIATKITD-NH2) [Compound 1859] | preferentially stimulating epithelial growth in the small intestine
4 | [Gly2, Glu3, Thr5, Leu10, Ala11,16,24,28]hGLP-2-(Lys)6-NH2 (HGEGTFSDELATILDALAARDFIAWLIATKITDKKKKKK-NH2) [Compound 1809] | preferentially stimulating epithelial growth in the small intestine
5 | [Gly2, Glu3, Thr5, Leu10, Lys11, Ala16,24,28]hGLP-2(1-33)-(Lys)6-NH2 (HGEGTFSDELKTILDALAARDFIAWLIATKITDKKKKKK-NH2) [Compound 1851] | preferentially stimulating epithelial growth in the small intestine
6 | [Gly2, Glu3, Thr5, Leu10, Ser11, Ala16,24,28]hGLP-2(1-33)-(Lys)6-NH2 (HGEGTFSDELSTILDALAARDFIAWLIATKITDKKKKKK-NH2) [Compound 1845] | preferentially stimulating epithelial growth in the small intestine
7 | [Gly2, Glu3, Thr5, Leu10, Ser11, Ala16,24,28]hGLP-2(1-33)-NH2 (HGEGTFSDELSTILDALAARDFIAWLIATKITD-NH2) [Compound 1854] | without preferential growth in small intestine or colon
8 | [Gly2, Glu3, Thr5, Ser8,11, Leu10, Ala16,24,28]hGLP-2(1-33)-(Lys)6-NH2 (HGEGTFSSELSTILDALAARDFIAWLIATKITDKKKKKK-NH2) [Compound 1844] | supplementary increase in the weight of the small intestine without significant effecting the weight of the colon; also recorded: preferentially stimulating epithelial growth in the small intestine
9 | [Gly2, Glu3, Thr5, Ser8,11, Leu10, Ala16,24,28]hGLP-2(1-33)-NH2 (HGEGTFSSELSTILDALAARDFIAWLIATKITD-NH2) [Compound 1853] | supplementary increase in the weight of the small intestine without significant effecting the weight of the colon; also recorded: preferentially stimulating epithelial growth in the small intestine
10 | [Gly2, Glu3, Thr5, Ser8, Leu10, Lys11, Ala16,24,28]hGLP-2(1-33)-NH2 [Compound 1852] | supplementary increase in the weight of the small intestine without significant effecting the weight of the colon; also recorded: preferentially stimulating epithelial growth in the small intestine
11 | [Gly2, Leu10, Ala24]hGLP-2-K6-NH2 (HGDGSFSDELNTILDNLAARDFIAWLIQTKITDKKKKKK-NH2) [Compound 1826] | preferentially stimulating epithelial growth in the small intestine
12 | [Gly2, Leu10, Lys11, Ala24]hGLP-2(1-30)-K6-NH2 [Compound 1821] | without preferential growth in small intestine or colon
13 | [Gly2, Leu10, Lys11, Ala24]hGLP-2(1-30)-NH2 (HGDGSFSDELKTILDNLAARDFIAWLIQTK-NH2) [Compound 1835] | preferentially stimulating epithelial growth in the colon
14 | [Gly2, Leu10, Ser8,11, Ala24]hGLP-2(1-30)-K6-NH2 [Compound 1829] | without preferential growth in small intestine or colon
15 | [Gly2, Leu10, Ser8,11, Ala24]hGLP-2(1-30)-NH2 (HGDGSFSSELSTILDNLAARDFIAWLIQTK-NH2) [Compound 1833] | without preferential growth in small intestine or colon

Same assay, conditions: male C57BL mice, 30 nmol/kg s.c. twice daily for ten days

Row | Substance | colon mass relative to body weight, % [Gly2]GLP-2
16 | [Gly2, Glu3, Leu10, Lys11, Ala16,24,28]hGLP-2(1-33)-(Lys)6-NH2 (HGEGSFSDELKTILDALAARDFIAWLIATKITDKKKKKK-NH2) [Compound 1850] | 89 % [Gly2]GLP-2
17 | [Gly2, Glu3, Leu10, Lys11, Ala16,24,28]hGLP-2(1-33)-NH2 (HGEGSFSDELKTILDALAARDFIAWLIATKITD-NH2) [Compound 1859] | 73 % [Gly2]GLP-2
18 | [Gly2, Glu3, Thr5, Leu10, Lys11, Ala16,24,28]hGLP-2(1-33)-(Lys)6-NH2 (HGEGTFSDELKTILDALAARDFIAWLIATKITDKKKKKK-NH2) [Compound 1851] | 96 % [Gly2]GLP-2
19 | [Gly2, Glu3, Thr5, Leu10, Ser11, Ala16,24,28]hGLP-2(1-33)-(Lys)6-NH2 (HGEGTFSDELSTILDALAARDFIAWLIATKITDKKKKKK-NH2) [Compound 1845] | 98 % [Gly2]GLP-2
20 | [Gly2, Glu3, Thr5, Ser8,11, Leu10, Ala16,24,28]hGLP-2(1-33)-(Lys)6-NH2 (HGEGTFSSELSTILDALAARDFIAWLIATKITDKKKKKK-NH2) [Compound 1844] | 89 % [Gly2]GLP-2
21 | [Gly2, Glu3, Thr5, Ser8,11, Leu10, Ala16,24,28]hGLP-2(1-33)-NH2 (HGEGTFSSELSTILDALAARDFIAWLIATKITD-NH2) [Compound 1853] | 96 % [Gly2]GLP-2
22 | [Gly2, Glu3, Thr5, Ser8, Leu10, Lys11, Ala16,24,28]hGLP-2(1-33)-NH2 [Compound 1852] | 97 % [Gly2]GLP-2
23 | [Gly2, Leu10, Lys11, Ala24]hGLP-2(1-30)-NH2 (HGDGSFSDELKTILDNLAARDFIAWLIQTK-NH2) [Compound 1835] | 105 % [Gly2]GLP-2

Same assay, conditions: male C57BL mice, 30 nmol/kg s.c. twice daily for ten days; third value column

Row | Substance | small intestine-colon sensitivity index, (SI/Colon)X/(SI/Colon)[Gly2]GLP-2 %
24 | [Gly2, Glu3, Leu10, Lys11, Ala16,24,28]hGLP-2(1-33)-(Lys)6-NH2 (HGEGSFSDELKTILDALAARDFIAWLIATKITDKKKKKK-NH2) [Compound 1850] | 116 % [Gly2]GLP-2
25 | [Gly2, Glu3, Leu10, Lys11, Ala16,24,28]hGLP-2(1-33)-NH2 (HGEGSFSDELKTILDALAARDFIAWLIATKITD-NH2) [Compound 1859] | 114 % [Gly2]GLP-2
26 | [Gly2, Glu3, Thr5, Leu10, Lys11, Ala16,24,28]hGLP-2(1-33)-(Lys)6-NH2 (HGEGTFSDELKTILDALAARDFIAWLIATKITDKKKKKK-NH2) [Compound 1851] | 114 % [Gly2]GLP-2
27 | [Gly2, Glu3, Thr5, Leu10, Ser11, Ala16,24,28]hGLP-2(1-33)-(Lys)6-NH2 (HGEGTFSDELSTILDALAARDFIAWLIATKITDKKKKKK-NH2) [Compound 1845] | 107 % [Gly2]GLP-2
28 | [Gly2, Glu3, Thr5, Ser8,11, Leu10, Ala16,24,28]hGLP-2(1-33)-(Lys)6-NH2 (HGEGTFSSELSTILDALAARDFIAWLIATKITDKKKKKK-NH2) [Compound 1844] | 119 % [Gly2]GLP-2
29 | [Gly2, Glu3, Thr5, Ser8,11, Leu10, Ala16,24,28]hGLP-2(1-33)-NH2 (HGEGTFSSELSTILDALAARDFIAWLIATKITD-NH2) [Compound 1853] | 105 % [Gly2]GLP-2
30 | [Gly2, Glu3, Thr5, Ser8, Leu10, Lys11, Ala16,24,28]hGLP-2(1-33)-NH2 [Compound 1852] | 109 % [Gly2]GLP-2
31 | [Gly2, Leu10, Lys11, Ala24]hGLP-2(1-30)-NH2 (HGDGSFSDELKTILDNLAARDFIAWLIQTK-NH2) [Compound 1835] | 91 % [Gly2]GLP-2
